Source: patent US8324282B2, “Alkylating agent combinations in the treatment of cancer” (Case Western Reserve University, priority 1999, dated 2012)

Key:
DEtp cell line = assay: DEtp subline of DLD1; assay type: cell-based; conditions: DEtp cell line
Description: We also investigated whether TMZ and MX-induced MX-AP sites may also act as poisons of topoisomerase II α (topo II), producing dual lethal targets. To analyze the effect of MX-AP site on topo II-mediated DNA cleavage, a position-specific MX-AP site was generated on topo II cleavage sites using oligonuleotides for cleavage assay. […] We also found prolonged induction of topo II and remarkable increase in DNA double strand breaks in cells treated with TMZ and MX compared to TMZ alone. Similar results were also observed in cells treated with etoposide but not with N-methyl-maleimide (a catalytic inhibitor of topo II and also an antagonizer of etoposide). Moreover, the potentiation of TMZ by MX was decreased in DEtp cell line that was a subline derived from DLD1 and 5-fold more resistant to etoposide compared to the parental cell line.

HCT116 xenograft = HCT116 xenograft tumor response in nude mice; assay type: in vivo; conditions: HCT116 xenograft; Table 2 doses: TMZ 120, MX 2, MX+TMZ 2/120 mg/kg; daily for 5 days
HCT116 cells [1] = assay: Flow cytometry cell cycle distribution and apoptosis, HCT116; assay type: cell-based, human
[2] = system: AP sites in calf thymus DNA; assay: Competitive AP site binding assayed by Aldehyde Reactive Probe (ARP); conditions: MX 5-20 mM
Description: 1. Analysis of chemical—modified AP Sites assayed by Aldehyde Reactive Probe (ARP). This is a competitive assay to measure the reactivity with AP site between ARP reagent (Dojindo Molecular Technologies Inc., Gaithersburg, Md.) and the screening compounds. ARP and MX have a similar reactivity with AP sites. They react specifically with an aldehyde group that is open ring form of the AP sites. Thus this assay will allow identification of compounds with potential to block AP site repair based on the binding affinity and efficiency to AP sites of screening compounds compared to ARP and MX.
a. AP site standard preparation: AP sites were produced in a calf thymus DNA by heat/acid-buffer solution. Intact calf thymus DNA was added to sodium citrate buffer (10 mM sodium citrate containing 10 mM NaH2PO4 and 10 mM NaCl, pH 5.0) and held at 70° C. for 30 min. The reaction was stopped by chilling rapidly on ice, and the DNA was then precipitated with cold ethanol, washed with 70% ethanol, dried, and resuspended in sterilized distilled water.
b. […] After NC membrane was rinsed with washing buffer containing NaCl (0.26 M), EDTA (1 mM), Tris-HCI (20 mM), and Tween 20 (1%), ARP-AP sites are visualized with ECL reagents (Amersham Corp.) (FIG. 22A) and quantitated by scanning densitometer (FIG. 22B).

[3] = Toxicity evaluation in mice bearing SW480 xenograft; conditions: Table 1 doses
Experimental: Tumors in Nude Mice. Tumor cells (5×10^6) were injected into flanks of female athymic HSD nude mice, at 6-8 weeks of age. The tumors were measured with calipers using the National Cancer Institute formula: V=L(mm)×I^2 (mm)/2 where L is the largest diameter and I is the smallest diameter of the tumor. […] Toxicity Evaluation. Toxicity after treatment was evaluated by body weight measurements and peripheral WBC counting. Body weight was measured three times weekly from the first treatment until 2 weeks after the end of treatment. The weight loss was expressed as a percentage of the initial weight (initial weight−lowest weight/initial weight×100%).

[4] = Acute toxicity of MX (i.p.); conditions: mice, single injection
Experimental: Three mice per group were injected (i.p.) with MX at doses of 1, 2, 4, 6, 10 and 15 mg/kg for the test of acute toxicity.

HCT116 cells [5] = assay: Colony survival assay, HCT116; assay type: cell-based, human; conditions: HCT116
Description: Chemicals and Reagents. BG was generously provided by Dr. Robert Moschel (Frederick Cancer Research and Development Center, National Cancer Institute). Stock solution was made in dimethylsulfoxide. TMZ and BCNU were obtained from the Drug Synthesis and Chemistry Branch, Drug Therapeutic Program, National Cancer Center Institute. PD128763 was a gift from Park-Davis Pharmaceutical Division. 6-AN, 3-AB, MX and methylmethane sulfonate (MMS) were purchased from Sigma (ST. Louis, Mo.). Stock solutions of PD128763, 3-AB and 6-AN were prepared by dissolving in dimethylsulfoxide and added to cell culture at a final concentration of <1% DMSO, when cells were treated with these compounds. MX was dissolved in sterilized water (pH 7.0). All stock solutions were kept at −20° C. BCNU was prepared fresh in 0.5 ml of 100% ethanol, diluted in PBS, and used with in 10 min. Colony Survival Assay. SW480 cells were obtained from the ATCC. HCT116 cells were obtained from R. Boland, University of Michigan Medical Center. All cell lines were cultured in appropriate growth medium.
Cells (2000/dish) were plated, adhered for 18 hrs and treated with TMZ or
MMS plus or minus modifiers such as […], MX, 6-AN, 3-AB or PD128763, according to experimental protocol. After treatment, cells were washed and fresh medium was replaced. The cells were grown for a further 7 days prior to staining with methylene blue for determination of colonies containing more than 50 cells. Comparisons of drug induced cytotoxicity consisted of a calculation of the dose modification factor (DMF), defined as the ratio of the IC50 of either TMZ or MMS in the absence to that in the presence of indicted modifier(s), i.e., DMF═IC50 for TMZ alone/IC50 for TMZ plus modifier(s).

HCT116 cells [6] = assay: Growth inhibition assay (MTT), HCT116; assay type: cell-based, human; conditions: HCT116; MX 6 mM plus H2O2 0-150 μM 1 hr
Experimental: In this experiment, a growth inhibition assay was carried out with H2O2, an oxidizing agent that mimics the effect of chemotherapeutic agents and radiation. Cells in the exponential phase were plated (1×10^4) in 24-well tissue culture plates. After attachment overnight, the cells were incubated with hydrogen peroxide (H2O2) (0-150 μM) or MX (6 mM) plus H2O2 for 1 hr. Five days after treatment, the media was discarded, and 100 μl of MTT (5 mg/ml in PBS) was added in 1 ml fresh media to each well for 4 hrs at 37° C. The MTT solution was then removed, and the formazan crystals were dissolved in 200 μl/well of DMSO for 20 min and changes in absorbance were determined at A540nm. Percentage growth inhibition was calculated by comparison of the A540nm reading from treated versus control cells.
The agents contemplated for combinations with MX in this example are agents which incorporate into DNA and are repaired by BER to form AP sites. Cell-growth inhibition was carried out with HCT116 cells to test MX-potentiated cytotoxicity of iododeoxyuridine (IUdR), which has been recognized as a radiosensitizing agent since the early 1960's.

CON [MX, methoxyamine]
potentiation of TMZ by MX (DEtp cell line): decreased
Tumor growth delays (HCT116 xenograft): 2.2 ± 0.4 days
effect on cell cycle distribution (HCT116 cells [1]): did not affect
AP binding sites blocked (relative reduction of ARP-detected AP sites by densitometry) [2]: 38-80%
Toxicity (max. BW loss) [3]: 0%
lethal dose [4]: 15 mg/kg
cytotoxicity of MX alone (HCT116 cells [5]; 6 mM MX): nontoxic
DMF of MMS (HCT116 cells [5]; MMS 0-3 mM plus 6 mM MX 1 hr vs MMS alone): 2.3
DMF (IC50 for TMZ alone/IC50 for TMZ plus modifier) (HCT116 cells [5]; modifier plus TMZ vs TMZ alone): 3.1 fold
effect of modifier on BCNU cytotoxicity (HCT116 cells [5]; without BG): No enhancement
sensitivity to killing induced by H2O2 (HCT116 cells [6]): significantly increased sensitivity
